In the supplement of paper PMC10307832:

Tests used:
Experiment in all cases: relative viability (nuclei count vs DMSO), 5 days (fraction); higher = more cells survive
[1] = compound: CCn1c(-c2nonc2N)nc2cnc(Oc3cccc(NC(=O)c4ccc(OCCN5CCOCC5)cc4)c3)cc21
How it was run: (§1)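 Viability was read as treated-well nuclei divided by vehicle-well nuclei, using the median across plates. Lung cancer cell lines in 1536-well plates were kept overnight at 37 °C, pinned with five √10-spaced library-drug doses, and after 5 days were Hoechst-stained, imaged at 4× and counted in MetaXpress. Plates passed only with control CV below 25% and at least one doubling.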

[2] = compound: CCC1=CN=CN=C1N2CCN(CC2)CC3=NC4=C(N3)C=C(C=C4)C(F)(F)F
How it was run: as §1

Mirin = compound: N=C1NC(=O)/C(=C/c2ccc(O)cc2)S1 [Mirin]
How it was run: as §1

Cell Line	relative viability ([1]; 0.04 µM)	relative viability ([1]; 0.1265 µM)	relative viability ([1]; 0.4 µM)	relative viability ([1]; 1.265 µM)	relative viability ([1]; 4 µM)	relative viability ([2]; 0.04 µM)	relative viability ([2]; 0.1265 µM)	relative viability ([2]; 0.4 µM)	relative viability ([2]; 1.265 µM)	relative viability ([2]; 4 µM)	relative viability (Mirin; 0.25 µM)	relative viability (Mirin; 0.7906 µM)	relative viability (Mirin; 2.5 µM)	relative viability (Mirin; 7.906 µM)	relative viability (Mirin; 25 µM)
SW 1573	1.1	0.992	0.74	0.488	0.338	0.925	1.08	0.912	0.858	0.941	0.986	0.825	0.986	0.968	0.779
LOU-NH91	1.08	0.854	0.664	0.454	0.523	0.894	0.954	0.963	0.839	1.01	0.914	0.738	0.981	0.912	1.21
LXF-289	1.07	1.12	0.965	0.858	0.762	1.1	0.944	0.953	1.05	0.99	0.997	1.1	0.999	1.06	1.13
NCI-H1299	1.03	0.931	0.84	0.767	0.681	1.04	1.01	0.986	1.01	1.01	0.999	1.09	1.03	1	1.16
HARA	1.11	0.782	0.563	0.258	0.28	0.891	0.902	0.863	0.654	1.08	1.09	0.803	0.918	0.939	0.916
LU99A	1.02	0.694	0.67	0.536	0.504	1.14	0.904	0.902	0.821	0.92	0.997	0.783	0.922	0.864	0.857
201T	1.06	0.961	0.811	0.778	0.834	0.98	0.956	0.97	0.869	1.05	1.03	1.03	0.974	1.05	1.02
HCC-827	1.02	0.961	0.911	0.821	0.756	1.05	1.04	0.998	0.942	0.988	1.03	1.09	1.01	1.02	1.19
NCI-H1666	1.13	1.15	1.04	0.607	0.628	0.99	0.929	0.952	0.962	0.944	1.05	1.04	0.987	0.889	0.892
NCI-H1915	1.11	1.01	0.811	0.331	0.404	0.992	0.976	0.926	0.809	1.05	1	–	0.984	0.951	1.03
NCI-H2009	0.978	0.754	0.676	0.374	0.418	1.08	0.991	0.989	0.963	0.933	1.01	1.08	1.04	0.843	1.01
ChaGo-K-1	1.14	1.02	0.801	0.833	0.879	1.01	0.961	0.932	0.961	0.97	0.986	0.916	0.93	0.887	0.833
COR-L 105	0.919	0.776	0.761	0.43	0.443	0.875	0.932	0.978	0.746	0.906	1.09	1.12	1.06	1.02	0.833
NCI-H2170	0.95	0.953	0.919	0.732	0.754	0.946	0.97	0.953	0.848	0.946	1.05	0.89	0.985	0.946	0.933
A549	1.24	1.01	0.742	0.116	0.116	0.978	0.868	0.921	0.934	0.89	1.01	0.982	1.05	0.913	0.953
NCI-H1975	0.824	0.636	0.49	0.427	0.304	1.04	0.951	0.931	0.844	0.942	1.07	1.03	0.94	1.01	0.979
Calu-6	1.05	1.02	0.841	0.604	0.549	1	0.986	0.953	0.898	0.925	1.02	1.07	1.06	0.923	0.987
NCI-H1648	1.27	1.34	0.982	1.35	0.875	0.916	0.664	–	1.1	0.611	1.04	0.726	1.09	0.552	0.709
NCI-H1623	1.13	1.02	0.974	0.902	1.08	0.897	0.996	0.873	0.832	1.17	0.967	1.08	1.04	0.823	0.738
NCI-H322M	1.22	1.17	0.882	0.656	0.72	1.05	0.95	0.935	0.729	1.01	0.99	0.867	0.967	1.19	0.944
NCI-H2405	1.05	0.668	0.254	0.318	0.327	0.968	0.989	0.981	–	1.11	0.967	0.928	0.974	0.968	0.997
HCC-44	1.01	1.05	0.565	0.326	0.321	0.961	0.972	0.968	1.04	0.982	0.987	1.1	0.991	0.925	1.18
HCC-78	1.2	1.08	0.75	0.955	1.16	0.875	0.894	0.888	0.746	0.756	0.887	0.838	1.11	0.894	1.09

Cell Line	relative viability ([1]; 0.04 µM)	relative viability ([1]; 0.1265 µM)	relative viability ([1]; 0.4 µM)	relative viability ([1]; 1.265 µM)	relative viability ([1]; 4 µM)	relative viability ([2]; 0.04 µM)	relative viability ([2]; 0.1265 µM)	relative viability ([2]; 0.4 µM)	relative viability ([2]; 1.265 µM)	relative viability ([2]; 4 µM)	relative viability (Mirin; 0.25 µM)	relative viability (Mirin; 0.7906 µM)	relative viability (Mirin; 2.5 µM)	relative viability (Mirin; 7.906 µM)	relative viability (Mirin; 25 µM)
COR-L23	1.1	0.846	0.497	0.252	0.19	0.985	0.989	0.937	0.932	0.922	1.04	1.13	1.09	1.06	1.02
NCI-H1993	0.985	0.878	0.603	0.793	0.82	0.968	0.921	0.809	0.916	0.945	0.914	0.75	1.08	0.941	0.879
NCI-H3122	1.01	0.978	0.924	0.755	0.695	1.05	1.01	0.964	1.03	1.1	1.03	0.953	1.02	1.08	1.1
NCI-H2228	1.26	0.964	0.908	0.919	0.881	1	0.858	0.99	0.928	0.98	1.09	0.89	0.969	0.886	1.02
NCI-H1944	0.977	0.946	0.577	0.576	0.336	1.11	0.929	0.847	0.652	0.852	0.979	0.952	0.971	0.898	0.625
NCI-H2342	1.04	1.05	0.874	0.748	0.804	0.936	0.888	0.864	0.543	0.72	0.998	1.02	1.03	0.668	0.888
NCI-H358	0.934	0.919	0.577	0.829	0.619	1.06	0.866	0.858	0.806	0.915	0.888	0.901	0.998	0.9	0.714
NCI-H1734	0.961	0.878	0.545	0.418	0.362	0.88	0.98	0.943	0.814	1.03	0.978	0.761	0.929	0.895	0.884
A-427	1.23	0.936	0.727	0.587	0.444	0.885	0.961	0.857	0.808	0.887	0.983	0.716	1.02	0.961	1.03
SK-LU-1	1.16	0.795	0.672	0.452	0.566	1.1	0.969	0.967	0.808	0.994	1.14	1.07	1.07	0.809	0.905
NCI-H838	0.854	0.517	0.409	0.406	0.319	0.997	0.941	0.942	0.828	0.957	0.999	0.93	1.02	1.02	0.959
LCLC-97TM1	1.37	1.1	–	0.899	1.03	0.849	0.95	1	1	0.95	1.1	0.706	1.13	0.621	0.677
BEN	0.92	0.816	0.514	0.362	0.452	0.836	0.929	0.928	0.594	0.675	0.857	1.01	1.2	0.812	0.549
NCI-H2023	1.13	0.964	0.743	0.508	0.419	1.03	0.914	0.917	0.858	1.03	1.01	0.937	0.958	0.975	0.86
LC-2-ad	1.06	0.906	0.654	0.525	0.524	1	0.947	0.973	0.871	0.92	1.02	0.848	0.964	0.824	1.04
ABC-1	1.09	0.906	0.545	0.452	0.447	0.946	0.807	0.816	0.742	0.828	0.996	0.806	0.949	0.759	0.487
NCI-H650	1.1	0.761	0.391	0.359	0.417	0.776	0.958	0.994	0.918	0.958	1.03	0.737	0.929	–	1.13
NCI-H1755	1.02	0.913	0.71	0.627	0.577	1.05	0.937	0.978	0.872	1	1.03	1.01	1.01	1.02	1.13
EPLC-272H	1.26	1.01	0.873	0.705	0.74	0.801	0.979	0.87	0.797	0.793	0.944	–	0.945	0.762	0.721
NCI-H1437	1.03	0.933	0.763	0.796	0.705	0.948	0.92	0.921	0.863	0.747	1	1.02	0.984	0.995	0.958
EKVX	1.24	0.957	0.932	0.87	0.855	1.03	0.806	0.933	0.782	1.04	0.962	0.905	1.09	0.925	0.986
NCI-H1651	1.05	1.01	0.826	0.7	0.648	1.08	0.961	0.978	0.909	0.988	0.962	0.973	1.03	0.866	0.918
HCC-15	1.12	0.964	0.844	0.77	0.911	0.999	0.946	0.934	0.897	1.04	1.06	0.798	0.979	0.884	0.953
